From patent US9650395B2, “Antibacterial compounds and methods for use” (PTC Therapeutics, Inc., priority 2011, dated 2017)
Converted amounts (≈) assume the structure as drawn. Where two headings read alike, the source gives them in different places.

Assays:
[1] = test system: Pseudomonas aeruginosa (P. aeruginosa) 27853; assay: Antibacterial activity, MIC, P. aeruginosa 27853; format: cell-based; details: Pseudomonas aeruginosa, P. aeruginosa 27853; read-out: MIC 27853
Description: (§1) The antibacterial activity from a microbroth dilution method may be presented as the minimum inhibitory concentration (MIC in […]). The MIC value is the lowest concentration of a drug which prevents macroscopically visible bacterial growth under test conditions.
Antibacterial activity of test compounds against the Gram-negative bacterium Pseudomonas aeruginosa (P. aeruginosa) 27853 is shown in Table 5.

[2] = test system: quinolone resistant E. coli LZ3111; assay: Antibacterial activity, MIC, quinolone resistant E. coli LZ3111; format: cell-based, Escherichia coli; details: Escherichia coli, read-out: MIC, LZ3111
Description: as §1
Mutations in these regions are known to confer a high level resistance to the quinolone class of antibiotics.

[3] = test system: resistant A. baumannii MXX2240 (MDR clinical isolate); assay: Antibacterial activity, MIC, resistant A. baumannii MXX2240; format: cell-based, Acinetobacter baumannii; details: Acinetobacter baumannii, read-out: MIC MMX2240
[4] = test system: control Gram-negative E. coli 25922 strain; assay: Antibacterial activity, microbroth dilution MIC, E. coli 25922; format: cell-based, Escherichia coli; details: Escherichia coli; E. coli 25922, microbroth dilution; read-out: MIC, 25922
[5] = test system: super sensitive Gram-negative Escherichia coli (E. coli) BAS849; assay: Antibacterial activity, microbroth dilution MIC, E. coli BAS849; format: cell-based; details: Escherichia coli; E. coli BAS849, microbroth dilution; read-out: MIC, BAS849
[6] = test system: Klebsiella pneumoniae (K. pneumoniae) 35657; assay: Antibacterial activity, MIC, K. pneumoniae 35657; format: cell-based; details: Klebsiella pneumoniae
[7] = test system: resistant K. pneumoniae MXX1232 (MDR clinical isolate); assay: Antibacterial activity, MIC, resistant K. pneumoniae MXX1232; format: cell-based, Klebsiella pneumoniae; details: Klebsiella pneumoniae, read-out: MIC MMX1232
[8] = test system: Gram-positive Staphylococcus aureus (S. aureus) 29213; assay: Antibacterial activity, microbroth dilution MIC, S. aureus 29213; format: cell-based; details: Staphylococcus aureus; S. aureus 29213, microbroth dilution; read-out: MIC, 29213
[9] = test system: Acinetobacter baumannii (A. baumannii) BAA747; assay: Antibacterial activity, MIC, A. baumannii BAA747; format: cell-based; details: Acinetobacter baumannii; A. baumannii BAA747; read-out: MIC BAA747
[10] = resistant A. baumannii MMX2240, MDR clinical isolate
[11] = resistant K. pneumoniae MMX1232, MDR clinical isolate

| Structure (SMILES) | MIC [1] | MIC [2] | MIC [3, 10] | MIC [4] | MIC [5] | MIC [6] | MIC [7, 11] | MIC [8] | MIC [9] | MIC [3] | MIC [7] |
| --- | --- | --- | --- | --- | --- | --- | --- | --- | --- | --- | --- |
| CCc1c(-c2ccc(N3CC4(CCN(C)CC4)C3)cc2)[nH]c(=O)c(C(=O)O)c1O [Cpd 319, 5-ethyl-4-hydroxy-6-(4-(7-methyl-2,7-diazaspiro[3.5]nonan-2-yl)phenyl)-2-oxo-1,2-dihydropyridine-3-carboxylic acid] | 12.5 to 150 µg/mL (≈ 31.4 to 377 µM) | 12.5 to 150 µg/mL (≈ 31.4 to 377 µM) | 12.5 to 150 µg/mL (≈ 31.4 to 377 µM) | 3.5 to 12.5 µg/mL (≈ 8.81 to 31.4 µM) | < 1 µg/mL | 3.5 to 12.5 µg/mL (≈ 8.81 to 31.4 µM) | 12.5 to 150 µg/mL (≈ 31.4 to 377 µM) | 12.5 to 150 µg/mL (≈ 31.4 to 377 µM) | 12.5 to 150 µg/mL (≈ 31.4 to 377 µM) |  |  |
| CCc1cc(C(=O)O)c(=O)[nH]c1-c1ccc(N2CCC(c3ccncc3)C2)cc1 (stereo not drawn) [Cpd 226, 5-ethyl-2-oxo-6-{4-[3-(pyridin-4-yl)pyrrolidin-1-yl]phenyl}-1,2-dihydropyridine-3-carboxylic acid] | 12.5 to 150 µg/mL (≈ 32.1 to 385 µM) | 12.5 to 150 µg/mL (≈ 32.1 to 385 µM) | 12.5 to 150 µg/mL (≈ 32.1 to 385 µM) | 1 to 3.5 µg/mL (≈ 2.57 to 8.99 µM) | < 1 µg/mL | 3.5 to 12.5 µg/mL (≈ 8.99 to 32.1 µM) | 12.5 to 150 µg/mL (≈ 32.1 to 385 µM) | 3.5 to 12.5 µg/mL (≈ 8.99 to 32.1 µM) | 1 to 3.5 µg/mL (≈ 2.57 to 8.99 µM) |  |  |
| Cc1c(-c2ccc(N3CCCC3)cn2)[nH]c(=O)c(C(=O)O)c1O [Cpd 315, 4-hydroxy-5-methyl-2-oxo-6-(5-(pyrrolidin-1-yl)pyridin-2-yl)-1,2-dihydropyridine-3-carboxylic acid] | 12.5 to 150 µg/mL (≈ 39.6 to 476 µM) | 12.5 to 150 µg/mL (≈ 39.6 to 476 µM) | 12.5 to 150 µg/mL (≈ 39.6 to 476 µM) | 12.5 to 150 µg/mL (≈ 39.6 to 476 µM) | 1 to 3.5 µg/mL (≈ 3.17 to 11.1 µM) | 12.5 to 150 µg/mL (≈ 39.6 to 476 µM) | 12.5 to 150 µg/mL (≈ 39.6 to 476 µM) | 12.5 to 150 µg/mL (≈ 39.6 to 476 µM) | 12.5 to 150 µg/mL (≈ 39.6 to 476 µM) |  |  |
| CCc1c(-c2cnc(N(C)C)nc2)[nH]c(=O)c(C(=O)O)c1O [Cpd 20, 6-[2-(dimethylamino)pyrimidin-5-yl]-5-ethyl-4-hydroxy-2-oxo-1,2-dihydropyridine-3-carboxylic acid] | 12.5 to 150 µg/mL (≈ 41.1 to 493 µM) | 3.5 to 12.5 µg/mL (≈ 11.5 to 41.1 µM) | 3.5 to 12.5 µg/mL (≈ 11.5 to 41.1 µM) | 12.5 to 150 µg/mL (≈ 41.1 to 493 µM) | 12.5 to 150 µg/mL (≈ 41.1 to 493 µM) | 12.5 to 150 µg/mL (≈ 41.1 to 493 µM) | 12.5 to 150 µg/mL (≈ 41.1 to 493 µM) | 12.5 to 150 µg/mL (≈ 41.1 to 493 µM) | 12.5 to 150 µg/mL (≈ 41.1 to 493 µM) |  |  |
| CCc1c(-c2ccc(C3=CCNCC3)cc2)[nH]c(=O)c(C(=O)O)c1O [Cpd 340, 5-ethyl-4-hydroxy-2-oxo-6-(4-(1,2,3,6-tetrahydropyridin-4-yl)phenyl)-1,2-dihydropyridine-3-carboxylic acid] | 12.5 to 150 µg/mL (≈ 36.7 to 441 µM) | 12.5 to 150 µg/mL (≈ 36.7 to 441 µM) |  | 12.5 to 150 µg/mL (≈ 36.7 to 441 µM) | 3.5 to 12.5 µg/mL (≈ 10.3 to 36.7 µM) | 3.5 to 12.5 µg/mL (≈ 10.3 to 36.7 µM) |  | 12.5 to 150 µg/mL (≈ 36.7 to 441 µM) | 12.5 to 150 µg/mL (≈ 36.7 to 441 µM) | 12.5 to 150 µg/mL (≈ 36.7 to 441 µM) | 12.5 to 150 µg/mL (≈ 36.7 to 441 µM) |
| CCNc1ccc(-c2[nH]c(=O)c(C(=O)O)c(O)c2CC)cc1 [Cpd 325, 5-ethyl-6-(4-(ethylamino)phenyl)-4-hydroxy-2-oxo-1,2-dihydropyridine-3-carboxylic acid] | 12.5 to 150 µg/mL (≈ 41.3 to 496 µM) | 12.5 to 150 µg/mL (≈ 41.3 to 496 µM) | 12.5 to 150 µg/mL (≈ 41.3 to 496 µM) | 3.5 to 12.5 µg/mL (≈ 11.6 to 41.3 µM) | < 1 µg/mL | 3.5 to 12.5 µg/mL (≈ 11.6 to 41.3 µM) | 12.5 to 150 µg/mL (≈ 41.3 to 496 µM) | 12.5 to 150 µg/mL (≈ 41.3 to 496 µM) | 3.5 to 12.5 µg/mL (≈ 11.6 to 41.3 µM) |  |  |
| CCc1c(-c2ccc(N3CCCC3)nc2)[nH]c(=O)c(C(=O)O)c1O [Cpd 336, 5-ethyl-4-hydroxy-2-oxo-6-(6-(pyrrolidin-1-yl)pyridin-3-yl)-1,2-dihydropyridine-3-carboxylic acid] | 12.5 to 150 µg/mL (≈ 38 to 455 µM) | 3.5 to 12.5 µg/mL (≈ 10.6 to 38 µM) | 12.5 to 150 µg/mL (≈ 38 to 455 µM) | 12.5 to 150 µg/mL (≈ 38 to 455 µM) | 1 to 3.5 µg/mL (≈ 3.04 to 10.6 µM) | 12.5 to 150 µg/mL (≈ 38 to 455 µM) | 12.5 to 150 µg/mL (≈ 38 to 455 µM) | 12.5 to 150 µg/mL (≈ 38 to 455 µM) | 12.5 to 150 µg/mL (≈ 38 to 455 µM) |  |  |
